In patent US9884833B2, “Crystalline forms of neurotrophin mimetic compounds and their salts” (Pharmatrophix, Inc., priority 2012, dated 2018):

How the values were obtained:
Type in all cases: physicochemical
[1] = Visual solubility measurement in various solvents
Experimental: About 100 mg of disulfate starting material was placed into each of 26 vials. Solvents were added and the vials were stirred for 30 minutes, followed by visual observation for remaining solids. Additional solvent was incrementally added until the solids were dissolved, or a maximum volume of solvent was added and the experiment was terminated. This solubility data was used in designing experiments, selecting the solvents, anti-solvents for crystallization and slurry experiments, sample consumption, etc.

[2] = Hygroscopicity by dynamic vapor sorption (DVS); conditions: for water uptake: 0-55% RH; for water uptake (sorption maximum): 95% RH
Experimental: Samples were analyzed using an automated dynamic vapor sorption analyzer. The sample (about 1-10 mg) was dried in the instrument 0% RH for 6 hours. The samples were subjected to 0 to 95% RH back to 5% RH at 25° C. in 5% RH steps.
The water content of the as received material was determined by Karl Fischer to be approximately 0.3 wt %. The moisture sorption-desorption isotherms (FIGS. 3A and 3B) were collected using dynamic vapor sorption (DVS) analysis. […] A hydrate may also form near 60% RH.
FIGS. 3A and 3B show the moisture sorption-desorption isotherm and the kinetic plots for Form A. This sample may undergo hydrate formation ≧60% RH, although the shape of the isotherm is less than ideal.
To understand this further a fresh sample of starting material was staged at 60% RH in DVS for about 3 hours allowing sample to gain about 4 wt %. […] FIG. 21.

[3] = Static vapor sorption studies in humidity chambers; conditions: for weight gain by TGA: after 40 days
From the text: Static vapor sorption studies were done in hermetic humidity chambers using saturated salts, or environmental humidity chambers to control the temperature and humidity. Data collected during dynamic vapor sorption studies often are not at theiniodynamic equilibrium. To gain a better understanding of the water uptake and the critical humidity level of the API, samples of the starting material (Form A) were monitored in static humidity chambers to allow the sample to equilibrate with aerial moisture.
In these studies, water vapor sorption was determined gravimetrically (or by Thermogravimetric analysis) by storing samples in open aluminum dishes. Samples were stored at 8 different humidities (23, 33, 43, 53, 60, 69, 75 and 84% RH) at ambient temperature. A few hundred milligrams of Form A was staged at each humidity condition.
The samples were examined periodically either by recording the weight change or by monitoring the water content by Karl Fischer or TGA, and/or XRD pattern. […] The samples stored at humidities higher than 60% RH deliquesced after 10 days.

[4] = Non-competitive slurry experiments (solid form stability)
From the text: In addition to the solvent recrystallization experiments, non-competitive slurry experiments were perfoi ined to search for new solid state forms. These experiments rely on solubility differences of different polymorphic forms (if the compound is polymorphic). […] Essentially, when a solid is mixed with solvent as slurry, a saturated solution eventually results. The solution is saturated with respect to the polymorphic form dissolved.
In addition, noncompetitive slurry experiments are often useful in identifying solvents that form solvates with the compound.
The slurry experiments were performed by exposing excess “starting” material (Form A) to neat (single) and binary solvent mixtures and agitating the resulting suspensions for several days at ambient temperature. The solids were vacuum filtered and analyzed by XRD to determine the resulting form. To avoid possible desolvation or physical change after isolation, the samples were not further dried before X-ray analysis.

[5] = DVS sorption, 25° C., listed as 2-amino-3-methyl-N-(2-morpholinoethyl)-pentanamide disulfate
[6] = stored at 60% RH, then dried at ~45° C. under vacuum for about 15 days

2-amino-3-methyl-N-(2-morpholinoethyl)-pentanamide disulfate [Form A]
Approx. Solubility ([1]; 1-butanol): ≦1.67 mg/mL
Approx. Solubility ([1]; 1-propanol): ≦1.67 mg/mL
Approx. Solubility ([1]; 2-butanol): ≦1.67 mg/mL
Approx. Solubility ([1]; 2-propanol): ≦1.67 mg/mL
Approx. Solubility ([1]; acetone): ≦1.67 mg/mL
Approx. Solubility ([1]; acetonitrile): ≦1.67 mg/mL
Approx. Solubility ([1]; butylamine): ≦1.67 mg/mL
Approx. Solubility ([1]; chloroform): ≦1.67 mg/mL
Approx. Solubility ([1]; dichloromethane): ≦1.67 mg/mL
Approx. Solubility ([1]; diisopropylamine): ≦1.67 mg/mL
Approx. Solubility ([1]; dimethylacetamide (DMA)): ≦1.67 mg/mL
Approx. Solubility ([1]; dimethylformamide (DMF)): ~1.67 mg/mL
Approx. Solubility ([1]; ethanol): ≧50 mg/mL
Approx. Solubility ([1]; ethyl acetate (EtOAc)): ≦1.67 mg/mL
Approx. Solubility ([1]; heptane): ≦1.67 mg/mL
Approx. Solubility ([1]; isopropyl acetate): ≦1.67 mg/mL
Approx. Solubility ([1]; isopropyl ether): ≦1.67 mg/mL
Approx. Solubility ([1]; methanol, stirred 30 minutes): ≧100 mg/mL
Approx. Solubility ([1]; methyl ethyl ketone (MEK)): ≦1.67 mg/mL
Approx. Solubility ([1]; methyl-t-butyl ether (MTBE)): ≦1.67 mg/mL
Approx. Solubility ([1]; nitromethane): ≦1.67 mg/mL
Approx. Solubility ([1]; pyridine): ≦1.67 mg/mL
Approx. Solubility ([1]; tetrahydrofuran (THF)): ≦1.67 mg/mL
Approx. Solubility ([1]; toluene): ≦1.67 mg/mL
Approx. Solubility ([1]; trifluoroethanol): ≧50 mg/mL
Approx. Solubility ([1]; water): ≧100 mg/mL
water remaining in desorption phase ([2]; DVS desorption, 65% RH, 25° C.): ~23 wt %
mass above original value at end of desorption cycle ([2]; DVS desorption): ~4 wt %
mass above original value at end of desorption cycle ([2]; DVS desorption, listed as 2-amino-3-methyl-N-(2-morpholinoethyl)-pentanamide disulfate): about 4 wt %
water uptake ([2]; DVS sorption, 25° C.): 2 wt %
water uptake [2, 5]: did not sorb much water
water uptake (total) ([2]; DVS sorption, 65% RH, 25° C.): ~23 wt %
water uptake (sorption maximum) ([2]; DVS sorption, 25° C.): approximately 225 wt %
water uptake (sorption maximum) [2, 5]: up to 225 wt %
behaviour at high humidity ([2]; DVS, high humidity, followed by glass formation upon evaporation): Apparent deliquescence
weight gain ([2]; fresh sample staged at 60% RH in DVS for about 3 hours): about 4 wt %
relative humidity at which hydrate forms ([2]; from DVS isotherm, 25° C.): ~60 % RH
weight gain by TGA ([3]; stored at 43% RH): approximately 1.0 wt %
weight gain by TGA ([3]; stored at 53% RH): ~1.3 wt %
state after storage ([3]; stored at 60% RH, after 27 days): mostly deliquesced
weight gain ([3]; stored at 60% RH, in 20 days): approximately 6 wt %
XRD after storage and drying [3, 6]: identical to starting material
weight by TGA after drying [3, 6]: approximately 3.3 wt %
state after storage ([3]; stored at humidities higher than 60% RH, ambient temperature, after 10 days): deliquesced
weight gain ([3]; stored at humidities lower than 43% RH, ambient temperature, after 15 days): minimaUno weight gain
Final Form ([4]; slurry in DMA, 27 days, ambient temperature, by XRD): monosulfate
Final Form ([4]; slurry in DMF/2-propanol (1/1), 19 days): monosulfate
Final Form ([4]; slurry in DMF/2-propanol (1/2), 19 days): monosulfate
Final Form ([4]; slurry in DMF/2-propanol (2/1), 19 days): monosulfate
Final Form ([4]; slurry in DMF/acetone (1/1), 19 days): monosulfate
Final Form ([4]; slurry in DMF/acetone (1/2), 19 days): monosulfate
Final Form ([4]; slurry in DMF/acetone (2/1), 19 days): monosulfate
Final Form ([4]; slurry in DMF/heptane (1/1), 19 days): monosulfate
Final Form ([4]; slurry in DMF/heptane (1/2), 19 days): monosulfate
Final Form ([4]; slurry in DMF/heptane (2/1), 19 days): monosulfate
Final Form ([4]; slurry in water, duration n/a): all dissolved
